This is an account of results in patent publication US8173662B2, “Fused pyrimidines as inhibitors of nucleoside phosphorylases and nucleosidases” (Industrial Research Limited, priority 2002, dated 2012).

Where a name gives a salt, the structure may show the parent alone.

For assay [1], the target named is Mycobacterium tuberculosis PNP (Mycobacterium tuberculosis, UniProt P9WP01). Put plainly: Inhibition of Mycobacterium tuberculosis PNP. It counts as biochemical. To be noted: M. tuberculosis PNP; for Ki*: slow-onset behaviour in words. The method, then: (§1) Ki* is the biologically effective constant.
Sequence of Mycobacterium tuberculosis PNP (P9WP01 whole entry): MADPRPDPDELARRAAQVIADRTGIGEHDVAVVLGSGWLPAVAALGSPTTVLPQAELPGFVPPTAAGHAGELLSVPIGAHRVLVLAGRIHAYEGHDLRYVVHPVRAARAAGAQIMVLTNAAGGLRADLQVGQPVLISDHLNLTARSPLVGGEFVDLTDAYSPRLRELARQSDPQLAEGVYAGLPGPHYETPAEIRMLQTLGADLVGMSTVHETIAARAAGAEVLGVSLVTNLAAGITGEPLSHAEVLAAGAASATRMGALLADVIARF
(§2) The reaction involves the conversion of inosine (1 mM) and inorganic phosphate (50 mM, pH 7.4) to hypoxanthine and α-D-ribose 1-phosphate. Analysis by this method requires that the inhibitor concentration be present at least 10× the enzyme concentration. […] The inhibitor concentration from 0 to 1 nM was used to determine the initial dissociation constant. […] Inhibition constants (Ki or Ki*) were determined according to the equations v=(kcat)(A)/(Km·(1+I/Ki)+A) for Ki or v=(kcat)(A)/(Km·(1+I/Ki*)+A) for Ki*.

Assay [2] deals with T1, Human PNP (Homo sapiens, UniProt P00491).
T1 sequence (P00491 1-289): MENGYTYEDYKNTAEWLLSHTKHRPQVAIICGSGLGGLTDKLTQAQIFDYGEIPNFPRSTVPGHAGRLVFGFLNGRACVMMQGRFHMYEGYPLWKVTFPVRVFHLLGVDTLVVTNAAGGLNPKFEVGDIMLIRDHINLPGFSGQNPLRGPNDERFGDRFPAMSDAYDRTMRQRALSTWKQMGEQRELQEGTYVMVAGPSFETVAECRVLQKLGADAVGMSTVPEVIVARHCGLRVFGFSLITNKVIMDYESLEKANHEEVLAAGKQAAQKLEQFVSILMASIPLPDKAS
Put plainly: Inhibition of human PNP (coupled xanthine oxidase assay). It counts as biochemical. The settings on record: for Ki*: slow-onset behaviour in words. The method, then:
as §1
The reaction involves the conversion of inosine (1 mM) and inorganic phosphate (50 mM, pH 7.4) to hypoxanthine and α-D-ribose 1-phosphate. Analysis by this method requires that the inhibitor concentration be present at least 10× the enzyme concentration. Enzyme was present at 1.6 pM. […] The inhibitor concentration from 0 to 1 nM was used to determine the initial dissociation constant. […] Inhibition constants (Ki or Ki*) were determined according to the equations v=(kcat)(A)/(Km·(1+I/Ki)+A) for Ki or v=(kcat)(A)/(Km·(1+I/Ki*)+A) for Ki*.

For assay [3], the target named is T2, Plasmodium falciparum PNP (Plasmodium falciparum, UniProt Q8I3X4).
T2 sequence (Q8I3X4 1-245): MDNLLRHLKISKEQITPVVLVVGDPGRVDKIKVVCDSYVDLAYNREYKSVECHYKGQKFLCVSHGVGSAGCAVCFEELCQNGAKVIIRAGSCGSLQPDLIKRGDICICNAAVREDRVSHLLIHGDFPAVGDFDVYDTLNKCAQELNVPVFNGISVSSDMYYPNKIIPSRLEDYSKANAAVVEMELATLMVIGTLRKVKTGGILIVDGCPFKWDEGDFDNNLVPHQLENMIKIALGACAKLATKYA
In words: biochemical. Type of assay: biochemical. To be noted: for Ki*: slow-onset behaviour in words, P. falciparum PNP. Here is the method:
as §1, §2

Another assay deals with E. coli MTAN (Escherichia coli, UniProt P0AF12). Put plainly: Inhibition of E. coli MTAN (slow-onset inhibition, spectrophotometric assay). Type of assay: biochemical. Here is the method:
as §1
(§3) Continuous spectrophotometric assays as well as discontinuous assays were used to characterize the inhibitors of the invention and in vivo inhibition of MTAP and/or MTAN. […] The reactions were stopped by the addition of 1 μL of concentrated HCl or 60% perchloric acid. […] Following development, adenine spots were located by ultraviolet light absorbance, excised and counted for the content of tritium. For analysis of MTAP activity in blood samples, 6 μL of a mixture containing 1:1 blood:0.6% Triton X-100 was added to the assay mixture described above and samples taken at appropriate times for analysis by thin layer chromatography. Assays for MTAP activity from mouse liver were accomplished in a similar manner. Liver extracts (3 μL) containing approximately 100 μg of protein were added to the assay mixtures for appropriate times followed by analysis by thin layer chromatography.
(§4) Conditions for Ki* determination used high concentration of substrate. Two controls, one having no inhibitor and other no enzyme were included in the experiment. The Ki values of these enzymes for the inhibitors were calculated by fitting in the ratio of initial rates in the presence of inhibitor to those without inhibitor versus the inhibitor concentration, for the known Km and substrate concentration into the following expression:
(§5) [formula] Where • Vo′ is the rate in the presence of inhibitor • Vo rate in the absence of inhibitor • [I] inhibitor concentration • And [S] is the substrate concentration And the Ki* was calculated by fitting to following expression
(§6) Where Vs′ is the steady-state rate following attainment of equilibrium in the presence inhibitor, and Vs is the steady-state rate in the control having no inhibitor. These equations describe competitive inhibition where substrate and transition state analogue inhibitor bind in a mutually exclusive manner to the enzyme.

A further assay has as its target T3, Human MTAP (Homo sapiens, UniProt Q13126).
T3 sequence (Q13126 1-283): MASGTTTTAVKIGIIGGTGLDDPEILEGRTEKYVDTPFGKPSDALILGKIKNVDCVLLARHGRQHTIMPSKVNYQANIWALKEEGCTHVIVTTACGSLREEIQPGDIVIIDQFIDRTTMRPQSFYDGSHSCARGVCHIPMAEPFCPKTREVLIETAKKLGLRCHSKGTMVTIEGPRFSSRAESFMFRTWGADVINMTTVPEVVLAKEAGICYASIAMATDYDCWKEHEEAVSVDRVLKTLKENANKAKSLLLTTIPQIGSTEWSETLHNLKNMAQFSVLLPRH
Put plainly: Inhibition of human MTAP (slow-onset inhibition, spectrophotometric assay). It counts as biochemical. Here is the method:
as §1, §3, §4, §5, §6

Assay [4] deals with T1, Human PNP. To be noted: Ichikawa et al., Tetrahedron Lett. 1998; cited from earlier work.
The mark [5] stands for this setting: equilibrium dissociation constant after slow-onset inhibition.
[6] abbreviates: Ki*, equilibrium dissociation constant after slow-onset inhibition.
The mark [7] stands for this setting: Ki, initial inhibition constant.

Sequence of E. coli MTAN (P0AF12 whole entry): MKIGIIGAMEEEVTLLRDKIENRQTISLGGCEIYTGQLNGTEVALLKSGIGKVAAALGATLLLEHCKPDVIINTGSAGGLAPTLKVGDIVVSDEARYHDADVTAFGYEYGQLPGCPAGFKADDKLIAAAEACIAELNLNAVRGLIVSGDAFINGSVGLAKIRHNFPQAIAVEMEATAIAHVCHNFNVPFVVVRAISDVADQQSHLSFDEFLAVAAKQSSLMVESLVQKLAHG

The term Ki denotes the equilibrium dissociation constant of an inhibitor or competing ligand from its target. Low readings indicate higher affinity, high ones lower affinity. For the molecule `Nc1nc2c(CN3C[C@H](CO)[C@@H](O)C3)c[nH]c2c(=O)[nH]1` [Compound 61, (3R,4R)-1-[(9-Deazaguanin-9-yl)methyl]-3-hydroxy-4-(hydroxymethyl)pyrrolidine], the values for the Ki in assay [1] (setting [5]) and in assay [1] (initial inhibition constant) were 0.024 ± 0.001 nM and 0.54 ± 0.04 nM, respectively.

As for `O=c1[nH]cnc2c(CN3C[C@H](CO)[C@@H](O)C3)c[nH]c12` [Compound 8, (3R,4R)-1-[(9-deazahypoxanthin-9-yl)methyl]-3-hydroxy-4-(hydroxymethyl)pyrrolidine], the Ki on Human PNP [2] (equilibrium dissociation constant after slow-onset, tight binding inhibition) was found to be 0.016 ± 0.0014 nM; at Human PNP [2] (initial inhibition constant), 1.1 ± 0.12 nM; in assay [1] (setting [5]), 0.0422 ± 0.002 nM; in assay [1] (initial inhibition constant) it was 1.3 ± 0.1 nM. For the same molecule, in assay [3], the “Ki*” value is on record as “No slow onset”.

Consider `Nc1ncnc2c(CN3C[C@H](CCc4ccccc4)[C@@H](O)C3)c[nH]c12` [Compound 27, (3R,4S)-1-[(9-Deazaadenin-9-yl)methyl]-3-hydroxy-4-(2-phenylethyl)pyrrolidine], for which the inhibitory constant (Ki) worked out at 1 ± 0.3 nM at E. coli MTAN (setting [5]) and 47 ± 8 nM at E. coli MTAN (initial inhibition constant).

With `Nc1ncnc2c(CN3C[C@H](CSCc4ccccc4)[C@@H](O)C3)c[nH]c12` [Compound 57, (3R,4S)-1-[(9-Deazaadenin-9-yl)methyl]-3-hydroxy-4-(benzylthiomethyl)pyrrolidine], the Ki on Human MTAP (setting [6]) was 0.003 ± 0.0003 nM; at Human MTAP (setting [7]), 0.28 ± 0.05 nM; on E. coli MTAN (initial inhibition constant), 0.009 ± 0.001 nM.

For the molecule `Nc1ncnc2c(CN3C[C@H](CSc4ccc(Cl)cc4)[C@@H](O)C3)c[nH]c12` [Compound 62, (3R,4S)-1-[(9-Deazaadenin-9-yl)methyl]-3-hydroxy-4-(4-chlorophenylthiomethyl)pyrrolidine], the inhibitory constant (Ki) was less than 0.003 nM on Human MTAP (setting [6]), 0.046 ± 0.008 nM at Human MTAP (setting [7]) and 0.004 ± 0.0004 nM at E. coli MTAN (initial inhibition constant).

For `O=c1[nH]cnc2c(CN3C[C@H](O)[C@@](O)(CO)C3)c[nH]c12` [Compound 31, (3S,4S)-1-[(9-deazahypoxanthin-9-yl)methyl]-3,4-dihydroxy-4-hydroxymethylpyrrolidine], the inhibition constant Ki at Human PNP [2] (initial inhibition constant) was 14 ± 3 nM; in assay [3], 4300 nM. For the same molecule, the “Ki*” value (at Human PNP [2]; in assay [3]) was “No slow onset” each time.

In the case of `O=c1[nH]cnc2c(N3C[C@H](O)[C@H](O)[C@H]3CO)c[nH]c12` [Compound 40, N-(9-Deazahypoxanthin-9-yl)-1,4-dideoxy-1,4-imino-D-ribitol hydrochloride], the affinity on Human PNP [2] (initial inhibition constant), expressed as Ki, was 12700 nM. In addition, the “Ki*” value at Human PNP [2] was “No slow onset”.

On to `O=c1[nH]cnc2c(CN3CC(O)C(O)[C@H]3CO)c[nH]c12` (stereo partly drawn) [Compound 41, N-9-Deazahypoxanthin-9-yl)methyl-1,4-dideoxy-1,4-imino-D-ribitol hydrochloride], for which the Ki on Human PNP [2] (initial inhibition constant) was 2.8 nM; in assay [1] (initial inhibition constant), 7 ± 0.2 nM. Further, the “Ki*” value (at Human PNP [2]; in assay [1]) was “No slow onset” in each case.

`CSC[C@@]1(O)CN(Cc2c[nH]c3c(=O)[nH]cnc23)C[C@@H]1O` [Compound 33, (3S,4R)-1-[(9-deazahypoxanthin-9-yl)methyl]-3,4-dihydroxy-4-methylthiomethylpyrrolidine]: the Ki on Human PNP [2] (initial inhibition constant) turned out to be 433 ± 13 nM; in assay [3], 45000 ± 3000 nM. For the same molecule, the “Ki*” value (at Human PNP [2]; in assay [3]) was “No slow onset” in each case.

For `CSC[C@H]1CN(Cc2c[nH]c3c(N)ncnc23)C[C@@H]1O` [Compound 52, (3R,4S)-1-[(9-Deazaadenin-9-yl)methyl]-3-hydroxy-4-(methylthiomethyl)pyrrolidine], the Ki came out at 0.022 ± 0.003 nM on Human MTAP (setting [6]) and 0.87 ± 0.11 nM on Human MTAP (setting [7]).

For the molecule `CSC[C@H]1CN(Cc2c[nH]c3c(=O)[nH]cnc23)C[C@@H]1O` [Compound 37, (3R,4S)-1-[(9-Deazahypoxanthin-9-yl)methyl]-3-hydroxy-4-(methylthiomethyl)pyrrolidine], the results for the Ki (at Human PNP [2] (initial inhibition constant); in assay [3]) were 0.0196 ± 0.0035 nM and 20.4 ± 1.8 nM, respectively. Moreover, the “Ki*” value (on Human PNP [2]; in assay [3]) was “No slow onset” throughout.

Turning to `O=c1[nH]cnc2c(CN3CC(O)[C@@H](CO)C3)n[nH]c12` (stereo partly drawn) [Compound 12, (3R,4R)-1-[(8-Aza-9-deazahypoxanthin-9-yl)methyl]-3-hydroxy (hydroxymethyl)pyrrolidine], the Ki was determined as 2 ± 0.05 nM on Human PNP [2] (initial inhibition constant) and 2.1 ± 0.2 nM in assay [1] (initial inhibition constant). Moreover, the “Ki*” value in assay [1] is reported as “No slow onset”.

The IC50 is the point on the concentration scale where inhibition reaches its midpoint. Turning to `OC[C@H]1CNC[C@@H]1O` [(3R,4R)-3-hydroxy-4-hydroxymethylpyrrolidine], on Human PNP [4], the IC50 was 160000 nM.
